In US8044077B2, “Alpha-(N-sulfonamido)acetamide compounds incorporating deuterium as inhibitors of beta amyloid peptide production” (Bristol-Myers Squibb Company, priority 2009, dated 2011):

Tested on: H4 APP751 SWE clone 8.20 (H4-8Sw cells), Aβ42 formation
Experiment: Inhibition of Aβ42 formation in cultured cells
Assay type: cell-based
Settings: H4-8Sw cells (H4 neuroglioma stably expressing Swedish mutant APP751), 19 hours incubation, mean±SD, n=2
Experimental: Compounds were assayed for Aβ42 inhibition in cells using H4 APP751 SWE clone 8.20, developed at Bristol-Myers Squibb, an H4 neuroglioma cell line stably expressing the Swedish mutant of APP751. Cells were maintained in log phase through twice weekly passage at a 1:20 dilution. For IC50 determinations, 30 μL cells (1.5×10^4 cells/well) in DMEM media containing 0.0125% BSA (Sigma A8412) were plated directly into 384-well compound plates (Costar 3709) containing 0.1 μL serially diluted compound in DMSO. Following incubation for 19 hours in 5% CO2 at 37° C., plates were briefly centrifuged (1000 rpm, 5 min). Antibody cocktails were freshly prepared by dilution into 40 mM Tris-HCl (pH 7.4) with 0.2% BSA and added to assay plates. For Aβ42 measurements, antibodies specific for the Aβ42 neoepitope (565, developed at Bristol-Myers Squibb; conjugated to the Wallac reagent (Perkin Elmer)) and the N-terminal sequence of Aβ peptide (26D6, developed at SIBIA/Bristol-Myers Squibb; conjugated to APC (Perkin Elmer)) were mixed and 20 μL of the mixture was added to each well of the incubated cell plate yielding a final concentration of 0.8 ng/well 565 and 75 ng/well 26D6. […] Signal was determined using a Viewlux counter (Perkin Elmer) and IC50 values determined using curve fitting in CurveMaster (Excel Fit based).

[2H]c1nc(-c2ccc(CN([C@H](CCC(F)(F)F)C(N)=O)S(=O)(=O)c3ccc(Cl)cc3)c(F)c2)no1 [Example 1, (2R)-2-[[(4-Chlorophenyl)sulfonyl][[2-fluoro-4-(1,2,4-oxadiazol-5-deutero-3-yl)phenyl]methyl]amino]-5,5,5-trifluoropentanamide]
IC50: 0.12 ± 0.01 nM
